Data as given in US20120034193A1, “TREATMENT OF NEUROTROPHIC FACTOR MEDIATED DISORDERS” (priority 2009, published 2012).
Marks after values point to notes of the source that are not given here.

Assays:
[1] = test system: BDNF; test: BDNF protein in culture medium of rat cortical neurones exposed to β-amyloid; assay type: cell-based; details: 10 μM pre-incubation 48 h, then β-amyloid 10 μg/ml 48 h
Description: Rat cortical neurones were cultured by modification of a method previously described (Eckenstein and Sofroniew, Journal of Neuroscience, 1983, 3, pp. 2286-2291). On day 8, the culture medium was changed to a medium containing vehicle (DMSO, 0.5%) or smilagenin or sarsasapogenin (10 μM). On day 10, rat primary cortical neurones were exposed to β-amyloid (10 μg/ml) for 48 h at 37° C. and the concentration of BDNF in the culture medium, the number of choline acetyltransferase (ChAT) positive cells, and the neurite outgrowth was measured (smilagenin only).

[2] = test system: Rat dopaminergic neurones; test: Pre-treatment against MPP+-induced loss of dopaminergic neurones; assay type: cell-based; details: 30 nM, 24 h before and during MPP+ 2 μM 48 h
Description: Rat dopaminergic neurones were cultured as previously described (Schinelli et al., Journal of Neurochemistry, 1988, 50, pp. 1900-1907). On day 5, the cultures were washed and placed in fresh medium containing test compounds (30 nM), vehicle (DMSO, 0.25%) or a combination of BDNF (1.85 nM) and GDNF (0.17 nM) for 24 h.
Exposure of rat primary dopaminergic neurones to MPP^+ (2 μM, 24 h) causes a significant decrease in the number of dopaminergic neurones compared to the control. On day 6, MPP^+ (2 μM) was added to the cultures in the presence of test compounds, vehicle or a combination of BDNF and GDNF for a further 48 h. MPP^+ induces neuronal death, via inhibition of complex I in the mitochondria and consequent ATP depletion, resulting in the production of free radicals and induction of apoptosis. After the incubation period, the cultures were fixed with paraformaldehyde in PBS (4%). After fixation, the neurones were permeabilised with Triton ×100 (0.05%) for 30 min. The neurones were then incubated with anti-tyrosine hydroxylase (TH) at 37° C. for 2 h. The neurones were washed three times with PBS, and then incubated with goat anti mouse/Cy3 for 2 h at 37° C. The neurones were mounted and examined with the fluorescence microscopy.

[3] = test system: BDNF mRNA; test: BDNF mRNA expression in rat cortical neurones under basal conditions (rt RT-PCR); assay type: cell-based; details: 30 nM
Description: Rat cortical neurones were cultured by modification of a method previously described (Singer, et al., Neuroscience Letters, 1996, 212, pp. 13-16). Twelve days after the start of culturing, sarsasapogenin (30 nM), smilagenin (30 nM), 4-methylcatechol (0.5 mM), an inducer of NGF and BDNF release (Saporito et al., Experimental Neurology., 1993, 123, pp. 295-302; Nitta et al., Journal of Pharmacology and Experimental Therapeutics, 1999, 291, pp. 1276-1283) or vehicle (dimethyl sulfoxide, DMSO, 0.25%) were added for 1, 3 or 6 h. After incubation the total messenger ribonucleic acid (mRNA) was quantified using real time reverse transcription-polymerase chain reaction (rt RT-PCR).

[4] = Long term oral toxicity study, non-rodents; assay type: in vivo; details: high doses
[5] = test system: Rat primary dopaminergic neurones; test: Reversal of MPP+-induced damage in dopaminergic neurones; assay type: cell-based; details: 30 nM for 48 h after MPP+ 2 μM 24 h
Description: Rat primary dopaminergic neurones were prepared as described above. On day 5, MPP^+ (2 μM) was added to the cultures for 24 h in culture medium at 37° C. in 5% CO2/95% air atmosphere. Exposure of rat primary dopaminergic neurones to MPP^+ (2 μM, 24 h) causes a significant decrease in the number of dopaminergic neurones compared to the control. On day 6 the medium was removed and fresh medium containing vehicle (DMSO, 0.25%), sarsasapogenin, smilagenin or a combinations of BDNF and GDNF was added. After 48 h, the extent of dopaminergic damage was determined as detailed above.

[6] = test system: BDNF; test: Brain BDNF in aged rats (ELISA); assay type: in vivo, Sprague Dawley (SD) rats; details: 18 mg/kg/day oral, 3 months, aged 1.21, young 1.65
Description: Old Sprague Dawley (SD) rats (20 month old) were orally administered sarsasapogenin or smilagenin (18 mg/kg/day) for 3 months. […] Young SD rats (4 month old) were used as healthy positive control. At the end of the treatment the brains removed for quantification of BDNF using an ELISA.

[7] = test system: Old Sprague Dawley (SD) rats; test: Y-maze learning and memory in aged rats; assay type: in vivo, Rat; details: 18 mg/kg/day oral; for Learning ability (correct response/total time): 2 months, aged 2.39, young 5.97; for Memory ability (correct response/total time): 3 months, aged 2.16, young 5.27; for Anxiety (Y-maze): up to 3 months
Description: Old Sprague Dawley (SD) rats (20 month old) were orally administered sarsasapogenin or smilagenin (18 mg/kg/day) for 3 months. Young SD rats (4 month old) were used as healthy positive control and old SD rats (20 month old) were used as neurodegenerative control. A Y-maze was used to assess learning and memory, and was considered also a model of anxiety in light of the nature of the test that caused distress to the animal. On the floor of each arm of the Y-maze was an array of copper rods (2 mm×140 mm) to which an adjustable voltage electric current was applied when needed. Each arm was 450 mm long with a 15 W lamp at the end. Following 2 months of treatment each rat was trained for 7 consecutive days, once on each day. During each training session, a rat was put into one arm of the Y-maze and after 2 min an electrical current applied to the copper rods in the anti-clockwise arm and the lamp of the clockwise arm was illuminated, indicating the non-electrified area. If the rat went into the illuminated arm a correct response was recorded, otherwise a wrong response was recorded. This stimulation-response test was repeated 20 times each day, with a pause of 5 s between each test. The number of correct responses and the total time period for the 20 tests were recorded. A quotient of the number of correct responses divided by the total response time was calculated and used as an index for learning ability, with the higher the quotient the greater the learning ability. One month after the learning test (3 months of treatment) the Y-maze test was carried out again and the quotient obtained was used as an index for memory ability. At the end of the treatment the rats were killed and the brains removed for quantification of BDNF using an ELISA (data of BDNF presented in Example 3 above).

## C[C@H]1CC[C@@]2(OC1)O[C@H]1C[C@H]3[C@@H]4CC[C@@H]5C[C@@H](O)CC[C@]5(C)[C@H]4CC[C@]3(C)[C@H]1[C@@H]2C [Sarsasapogenin, sarsasapogenin]
[1]
  BDNF concentration (pg/ml): 9.31 ± 0.15^++++,**** pg/ml
[2]
  Neuronal survival (% of control): 88.73 ± 4.39 % of control
[3]; 1 h
  BDNF mRNA, % increase above control: No increase
[3]; 3 h
  BDNF mRNA, % increase above control: 22%
[3]; 6 h
  BDNF mRNA, % increase above control: No increase
[4]; 39 weeks in non-rodents
  Long term toxicity: without showing any signs of toxicity or adverse events
[5]
  Neuronal survival (% of control): 104.30 ± 5.63 % of control
[6]
  BDNF (ng/g tissue): 1.41 ± 0.07 ng/g tissue
[7]
  Learning ability (correct response/total time): 5.02 ± 0.50 correct response/total time
  Memory ability (correct response/total time): 4.66 ± 0.34 correct response/total time
  Anxiety (Y-maze): reduce the anxiety

## C[C@@H]1CC[C@@]2(OC1)O[C@H]1C[C@H]3[C@@H]4CC[C@@H]5C[C@@H](O)CC[C@]5(C)[C@H]4CC[C@]3(C)[C@H]1[C@@H]2C [Smilagenin, smilagenin]
[1]
  BDNF concentration (pg/ml): 4.20 ± 0.06****^,++++ pg/ml
[2]
  Neuronal survival (% of control): 97.91 ± 3.63 % of control
[3]; 1 h
  BDNF mRNA, % increase above control: No increase
[3]; 3 h
  BDNF mRNA, % increase above control: 40%
[3]; 6 h
  BDNF mRNA, % increase above control: No increase
[4]; up to 52 weeks in non-rodents
  Long term toxicity: without showing any signs of toxicity or adverse events
[5]
  Neuronal survival (% of control): 113.44 ± 4.62 % of control
[6]
  BDNF (ng/g tissue): 1.34 ± 0.07 ng/g tissue
[7]
  Learning ability (correct response/total time): 4.81 ± 0.32 correct response/total time
  Memory ability (correct response/total time): 4.58 ± 0.26 correct response/total time
  Anxiety (Y-maze): reduce the anxiety
